Source: ChEMBL document CHEMBL5375989, “Pioneering 4,11-Dioxo-4,11-dihydro-1H-anthra[2,3-d]imidazol-3-ium Compounds as Promising Survivin Inhibitors by Targeting ILF3/NF110 for Cancer Therapy” (J Med Chem, 2023)
Calls of active or inactive are those of the source. The rule behind the calls is not given here.

Key:
[1] = Toxicity in BALB/c mouse assessed as appearance of spotty necrosis of hepatocytes at 2 mg/kg by H and E staining based analysis; type: organism-based; settings: in vivo
[2] = Toxicity in BALB/c nude mouse assessed as effect on body weight at 2 mg/kg, sc administered every 2 days for 14 days; type: organism-based; settings: in vivo, 336 h, time 14 day
[3] = tested on: A549; test: Antitumor activity against human A549 cells xenografted in BALB/c nude mouse assessed as appearance of various size of tumor necrosis at 2 mg/kg measured after 14 days by H and E staining based analysis; type: functional, organism-based; settings: time 14.0 day
[4] = Toxicity in BALB/c mouse assessed as appearance of acidophilic degeneration of myocardial cells at 2 mg/kg by H and E staining based analysis; type: organism-based; settings: in vivo
[5] = tested on: A549; test: Antitumor activity against human A549 cells xenografted in BALB/c nude mouse assessed as decrease in tumor cell proliferation at 2 mg/kg measured after 14 days by Ki67 staining based analysis; type: functional, organism-based; settings: time 14.0 day
[6] = tested on: A549; test: Antitumor activity against human A549 cells xenografted in BALB/c nude mouse assessed as increase in apoptosis at 2 mg/kg measured after 14 days by tunel staining based analysis; type: functional, organism-based; settings: time 14.0 day
[7] = Toxicity in BALB/c nude mouse assessed as side effects at 2 mg/kg, sc administered every 2 days for 14 days; type: organism-based; settings: in vivo, 336 h, time 14 day
[8] = Toxicity in BALB/c mouse assessed as appearance of severe damage to spleen tissue at 2 mg/kg by H and E staining based analysis; type: organism-based; settings: in vivo
[9] = tested on: A549; test: Antitumor activity against human A549 cells xenografted in BALB/c nude mouse assessed as decrease in tumor cell proliferation at 2 mg/kg measured after 14 days by PCNA staining based analysis; type: functional, organism-based; settings: time 14.0 day
[10] = tested on: A549; test: Antitumor activity against human A549 cells xenografted in BALB/c nude mouse assessed as inhibition of tumor growth at 2 mg/kg, sc administered every 2 days for 14 days; type: functional, organism-based; settings: time 14.0 day
[11] = Toxicity in BALB/c mouse assessed as disappearance of nuclei at 2 mg/kg by H and E staining based analysis; type: organism-based; settings: in vivo
[12] = Toxicity in BALB/c mouse assessed as morphological changes with karyorrhexis in spleen at 2 mg/kg by H and E staining based analysis; type: organism-based; settings: in vivo
[13] = Toxicity in BALB/c mouse assessed as morphological changes with karyopyknosis in spleen at 2 mg/kg by H and E staining based analysis; type: organism-based; settings: in vivo
[14] = Drug metabolism in BALB/C nude mouse kidney xenografted with human A549 cells at 2 mg/kg measured after 2 to 6 hrs by UPLC-3Q analysis; type: ADME, organism-based; settings: in vivo, time 2-6 hrs
[15] = Drug distribution in BALB/C nude mouse heart xenografted with human A549 cells at 2 mg/kg measured after 2 to 6 hrs by UPLC-3Q analysis; type: ADME, organism-based; settings: in vivo, time 2-6 hrs
[16] = Antiproliferative activity against human HUVEC cells assessed as inhibition of cell growth measured after 48 hrs by MTT assay; type: toxicity, cell-based; settings: human, HUVEC cells
[17] = Selectivity index, ratio of IC50 for mouse L929 cells to IC50 for human A549 cells; type: toxicity; settings: L929 cells and A549 cells, read-out: Ratio IC50
[18] = Drug uptake in Sprague-Dawley rat blood at 2 mg/kg measured after 2 hrs by UPLC-3Q analysis; type: ADME, organism-based; settings: in vivo
[19] = Toxicity in BALB/c mouse assessed as appearance of renal tubular necrosis in cortex at 2 mg/kg by H and E staining based analysis; type: organism-based; settings: in vivo
[20] = target: T1, Interleukin enhancer-binding factor 3 (Homo sapiens, UniProt Q12906); test: Binding affinity to ILF3 (unknown origin) assessed as dissociation constant at upto 1 uM by SPR method
T1 sequence (Q12906 whole entry): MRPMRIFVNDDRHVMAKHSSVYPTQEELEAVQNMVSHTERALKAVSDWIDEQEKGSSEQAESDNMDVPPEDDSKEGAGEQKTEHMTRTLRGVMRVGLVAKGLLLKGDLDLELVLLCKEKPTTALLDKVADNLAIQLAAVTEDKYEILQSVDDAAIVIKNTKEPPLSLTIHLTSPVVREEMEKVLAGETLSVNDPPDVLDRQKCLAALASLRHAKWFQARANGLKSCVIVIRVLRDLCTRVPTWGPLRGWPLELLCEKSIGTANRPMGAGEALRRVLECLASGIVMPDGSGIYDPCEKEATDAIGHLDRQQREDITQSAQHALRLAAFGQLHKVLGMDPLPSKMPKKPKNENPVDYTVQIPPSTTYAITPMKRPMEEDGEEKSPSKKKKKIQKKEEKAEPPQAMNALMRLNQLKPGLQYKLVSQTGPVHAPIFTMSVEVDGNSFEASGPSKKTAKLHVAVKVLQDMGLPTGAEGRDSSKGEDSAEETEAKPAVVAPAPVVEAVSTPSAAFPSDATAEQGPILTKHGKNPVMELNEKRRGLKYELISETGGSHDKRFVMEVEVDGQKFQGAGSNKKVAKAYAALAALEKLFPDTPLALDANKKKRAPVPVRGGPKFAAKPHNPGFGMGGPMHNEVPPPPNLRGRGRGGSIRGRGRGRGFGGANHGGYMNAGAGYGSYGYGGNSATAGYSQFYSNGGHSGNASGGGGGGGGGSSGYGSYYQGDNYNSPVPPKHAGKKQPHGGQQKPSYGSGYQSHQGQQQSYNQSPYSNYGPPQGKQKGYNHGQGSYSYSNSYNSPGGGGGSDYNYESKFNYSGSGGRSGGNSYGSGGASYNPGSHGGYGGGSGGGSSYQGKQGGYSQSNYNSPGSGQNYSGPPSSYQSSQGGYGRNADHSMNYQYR

[21] = Toxicity in BALB/c mouse assessed as varying degree of multifocal alveolar luminal hemorrhage at 2 mg/kg by H and E staining based analysis; type: organism-based; settings: in vivo
[22] = Toxicity in BALB/c mouse assessed as appearance of condensed nuclei at 2 mg/kg by H and E staining based analysis; type: organism-based; settings: in vivo
[23] = Antiproliferative activity against mouse NIH3T3 cells assessed as inhibition of cell growth measured after 48 hrs by MTT assay; type: toxicity, cell-based; settings: mouse, NIH3T3 cells
[24] = Antiproliferative activity against human MRC5 cells assessed as inhibition of cell growth measured after 48 hrs by MTT assay; type: toxicity, cell-based; settings: human, MRC5 cells

For COc1cccc2c1C(=O)c1c(O)c3c(c(O)c1C2=O)C[C@@](O)(C(=O)CO)C[C@@H]3O[C@H]1C[C@H](N)[C@H](O)[C@H](C)O1 [DOXORUBICIN], the Activity [1] was “Toxic”, the Activity [2] was “Toxic” and the Activity [3] was “Active”. For the same molecule, the Activity [4] was “Toxic”, the Activity [5] was “Active” and the Activity [6] was “Active”. For the same molecule, the Activity [7] was “Toxic”, the Activity [8] was “Toxic” and the Activity [9] was “Active”. The Activity [10] was “Active”.

In the case of COCCn1c2c([n+](Cc3cnccn3)c1C)C(=O)c1ccccc1C2=O.[Br-] [SEPANTRONIUM BROMIDE], the Activity [11] is reported as “Toxic”, the Activity [12] is reported as “Toxic” and the Activity [13] is reported as “Toxic”. For the same molecule, the Drug metabolism [14] was “Metabolite_Detected”, the Drug uptake [15] was “Active” and the IC50 at 48 h [16] was 920 nM. For the same molecule, the selectivity ratio [17] was 970, the Drug uptake [18] was “Not Active” and the Activity [19] was “Toxic”. For the same molecule, the Kd [20] was 571 nM, the Activity [21] was “Toxic” and the Activity [22] was “Toxic”. For the same molecule, the IC50 at 48 h [23] was 13600 nM and the IC50 at 48 h [24] was 1940 nM.
